From patent US20160287617A1 (priority 2013, published 2016)
Marks after values point to notes of the source that are not given here.

What was measured:
Set-up in all cases: species or system broiler chickens
Conditions in all cases: in vivo
T-2 toxin in chickens [1] = system: T-2 toxin in chickens
T-2 toxin in chickens [2] = system: T-2 toxin in chickens; remark: listed apart in the source
T-2 toxin in chickens [3] = system: T-2 toxin in chickens; remark: listed apart in the source
T-2 toxin in chickens [4] = system: T-2 toxin in chickens; remark: listed apart in the source
T-2 toxin in chickens [5] = system: T-2 toxin in chickens; remark: listed apart in the source
Newcastle = system: Newcastle

T-2 toxin
Gizzard: loss of continuity, ulcer activity (moderate multifocal ulcerative ventriculitis) (T-2 toxin in chickens [1]): 7/12 | Gizzard: scant erosions in the recovery zone (discrete, multifocal erosions) (T-2 toxin in chickens [1]): 5/12 | Kidney: lymphocyte clusters in the interstitial space (T-2 toxin in chickens [1]): 4/12 | Larynx: no significant changes (T-2 toxin in chickens [1]): 4/12 | Liver: areas of extramedullary hematopoiesis (T-2 toxin in chickens [1]): 1/12 | Liver: multifocal lymphocyte clusters around portal cavities and in the parenchymal (lymphocytic colangiohepatitis) (T-2 toxin in chickens [1]): 8/12 | Liver: scant fat vacuoles/cells in hepatocyte cytoplasm (esteatosis) (T-2 toxin in chickens [1]): 3/12 | Proventriculus: hyperplasia / cluster of associated lymphoid tissue (T-2 toxin in chickens [1]): 1/12 | Proventriculus: no significant changes (T-2 toxin in chickens [1]): 11/12 | Spleen, thymus: no significant changes (T-2 toxin in chickens [1]): 12/12 | Tongue: dense plates above epithelium lining with lymphocyte and macrophage clusters (estomatitis and erosive/necrotic glositis) (T-2 toxin in chickens [1]): 8/12 | Tongue: no significant changes (animals/examined) (T-2 toxin in chickens [1]): 4/12 | Ash, medians ± standard error (T-2 toxin in chickens [2]): 56.37 ± 0.32 ^a % | Calcium, medians ± standard error (T-2 toxin in chickens [2]): 20.43 ± 0.19 ^a % | Manganesium, medians ± standard error (T-2 toxin in chickens [2]): 6.7 ± 0.21 ^a mg/kg | Phosphorous, medians ± standard error (T-2 toxin in chickens [2]): 9.72 ± 0.07 ^a % | Zinc, medians ± standard error (T-2 toxin in chickens [2]): 247 ± 4.37 ^a mg/kg | Feed consumption, medians ± standard error (T-2 toxin in chickens [3]): 2035 ± 44.3 ^a | Feed conversion, medians ± standard error (T-2 toxin in chickens [3]): 1.45 ± 0.035 ^b | Weight gain, medians ± standard error (T-2 toxin in chickens [3]): 1399 ± 29.46 ^b | Weight in g, Final (28 days), medians ± standard error (T-2 toxin in chickens [3]): 1442 ± 29.49 ^b g | Weight in g, Initial, medians ± standard error (T-2 toxin in chickens [3]): 43 ± 0.43 ^a g | Xantophylls (oral solution), medians ± standard error (T-2 toxin in chickens [3]; po): 8.92 ± 0.70 ^b mg/L | Relative weight of bursa of Fabricius (%), medians ± standard error (T-2 toxin in chickens [4]): 0.248 ± 0.016 ^a % | Relative weight of kidney (%), medians ± standard error (T-2 toxin in chickens [4]): 0.809 ± 0.032 ^a % | Relative weight of liver (%), medians ± standard error (T-2 toxin in chickens [4]): 2.57 ± 0.104 ^a % | Relative weight of spleen (%), medians ± standard error (T-2 toxin in chickens [4]): 0.094 ± 0.009 ^a % | Relative weight of thymus (%), medians ± standard error (T-2 toxin in chickens [4]): 0.282 ± 0.020 ^a % | Granulocytes (segmented neutrophils and band neutrophils), medians ± standard error (T-2 toxin in chickens [5]): 0.9 ± 0.17 ^a 10^3/μL | Hematocrit, medians ± standard error (T-2 toxin in chickens [5]): 31.8 ± 1.56 ^a % | Hemoglobin, medians ± standard error (T-2 toxin in chickens [5]): 12.1 ± 0.46 ^a g/dL | Lymphocytes, medians ± standard error (T-2 toxin in chickens [5]): 58.4 ± 3.32 ^b 10^3/μL | Median cell count (monocytes, basophils and eosinophils), medians ± standard error (T-2 toxin in chickens [5]): 5.8 ± 0.76 ^a 10^3/μL | Platelets, medians ± standard error (T-2 toxin in chickens [5]): 31 ± 4.95 ^a 10^3/μL | Red blood cells (erythrocytes), medians ± standard error (T-2 toxin in chickens [5]): 2.46 ± 0.12 ^a 10^6/μL | White blood cells (Leukocytes), medians ± standard error (T-2 toxin in chickens [5]): 65.10 ± 4.07 ^b 10^3/μL | Inhibition of Newcastle hemagglutination (18 days after vaccination), medians ± standard error (Newcastle): 8.717 ± 0.29 ^b Log2
